± gives the expanded uncertainty stated by the source.
Tests used:
[1] = 308.5 K; 101.33 kPa; Liquid
[2] = excess molar enthalpy (molar enthalpy of mixing); xn = mol fraction of the nth substance listed; conditions: 308.15 K, 101 kPa, Liquid, Flow calorimetry

SMILES: CCOCCOCCO [3,6-dioxa-1-octanol]
- mass density [1]: 974.67 ± 0.52 kg/m3

SMILES: OCCOCCOCCO [triethylene glycol]
- mass density [1]: 1112.59 ± 0.64 kg/m3

SMILES: CCOCCOCC [1,2-diethoxyethane]
- mass density [1]: 826.22 ± 0.58 kg/m3

SMILES: COCCOC [1,2-dimethoxyethane] + OCc1ccccc1
- excess molar enthalpy ([2]; x1 = 0.0395): 0.0173 ± 0.000311 kcal/mol
- excess molar enthalpy ([2]; x1 = 0.076): 0.0136 ± 0.000287 kcal/mol
- excess molar enthalpy ([2]; x1 = 0.1098): 0.000693 ± 0.000191 kcal/mol
- excess molar enthalpy ([2]; x1 = 0.1413): -0.0149 ± 0.000311 kcal/mol
- excess molar enthalpy ([2]; x1 = 0.1979): -0.0436 ± 0.000526 kcal/mol
- excess molar enthalpy ([2]; x1 = 0.2476): -0.0633 ± 0.000669 kcal/mol
- excess molar enthalpy ([2]; x1 = 0.3305): -0.0801 ± 0.000813 kcal/mol
- excess molar enthalpy ([2]; x1 = 0.3969): -0.08 ± 0.000813 kcal/mol
- excess molar enthalpy ([2]; x1 = 0.4968): -0.0624 ± 0.000669 kcal/mol
- excess molar enthalpy ([2]; x1 = 0.5969): -0.0293 ± 0.000406 kcal/mol
- excess molar enthalpy ([2]; x1 = 0.6638): 0.00306 ± 0.000215 kcal/mol
- excess molar enthalpy ([2]; x1 = 0.7476): 0.0543 ± 0.000598 kcal/mol
- excess molar enthalpy ([2]; x1 = 0.7979): 0.08707 ± 0.00086 kcal/mol
- excess molar enthalpy ([2]; x1 = 0.8555): 0.1169 ± 0.0011 kcal/mol
- excess molar enthalpy ([2]; x1 = 0.8876): 0.1236 ± 0.00115 kcal/mol
- excess molar enthalpy ([2]; x1 = 0.9221): 0.1161 ± 0.00108 kcal/mol
- excess molar enthalpy ([2]; x1 = 0.9595): 0.08243 ± 0.000813 kcal/mol

SMILES: CCOCCOCCO [3,6-dioxa-1-octanol] + OCc1ccccc1
- excess molar enthalpy ([2]; x1 = 0.0289): -0.0471 ± 0.00055 kcal/mol
- excess molar enthalpy ([2]; x1 = 0.0561): -0.0828 ± 0.000837 kcal/mol
- excess molar enthalpy ([2]; x1 = 0.0819): -0.1102 ± 0.00103 kcal/mol
- excess molar enthalpy ([2]; x1 = 0.1063): -0.1318 ± 0.0012 kcal/mol
- excess molar enthalpy ([2]; x1 = 0.1514): -0.1627 ± 0.00143 kcal/mol
- excess molar enthalpy ([2]; x1 = 0.1921): -0.1839 ± 0.0016 kcal/mol
- excess molar enthalpy ([2]; x1 = 0.2629): -0.2083 ± 0.00179 kcal/mol
- excess molar enthalpy ([2]; x1 = 0.3223): -0.2197 ± 0.00189 kcal/mol
- excess molar enthalpy ([2]; x1 = 0.4164): -0.225 ± 0.00194 kcal/mol
- excess molar enthalpy ([2]; x1 = 0.517): -0.2142 ± 0.00184 kcal/mol
- excess molar enthalpy ([2]; x1 = 0.588): -0.1989 ± 0.00172 kcal/mol
- excess molar enthalpy ([2]; x1 = 0.6816): -0.1701 ± 0.00151 kcal/mol
- excess molar enthalpy ([2]; x1 = 0.7405): -0.1475 ± 0.00134 kcal/mol
- excess molar enthalpy ([2]; x1 = 0.8106): -0.1164 ± 0.00108 kcal/mol
- excess molar enthalpy ([2]; x1 = 0.8509): -0.09579 ± 0.000932 kcal/mol
- excess molar enthalpy ([2]; x1 = 0.8954): -0.0707 ± 0.000741 kcal/mol
- excess molar enthalpy ([2]; x1 = 0.9448): -0.0393 ± 0.000502 kcal/mol

SMILES: OCc1ccccc1 [benzenemethanol]
- mass density [1]: 1033.64 ± 0.55 kg/m3

SMILES: CCOCCOCCOCC [diethylene glycol diethyl ether] + OCc1ccccc1
- excess molar enthalpy ([2]; x1 = 0.0234): -0.0401 ± 0.000502 kcal/mol
- excess molar enthalpy ([2]; x1 = 0.0458): -0.0728 ± 0.000741 kcal/mol
- excess molar enthalpy ([2]; x1 = 0.0672): -0.09959 ± 0.000956 kcal/mol
- excess molar enthalpy ([2]; x1 = 0.0876): -0.1215 ± 0.00112 kcal/mol
- excess molar enthalpy ([2]; x1 = 0.1259): -0.1547 ± 0.00139 kcal/mol
- excess molar enthalpy ([2]; x1 = 0.1611): -0.1773 ± 0.00155 kcal/mol
- excess molar enthalpy ([2]; x1 = 0.2236): -0.203 ± 0.00177 kcal/mol
- excess molar enthalpy ([2]; x1 = 0.2774): -0.2131 ± 0.00184 kcal/mol
- excess molar enthalpy ([2]; x1 = 0.3655): -0.2129 ± 0.00184 kcal/mol
- excess molar enthalpy ([2]; x1 = 0.4635): -0.1973 ± 0.00172 kcal/mol
- excess molar enthalpy ([2]; x1 = 0.5353): -0.1792 ± 0.00158 kcal/mol
- excess molar enthalpy ([2]; x1 = 0.6334): -0.1493 ± 0.00134 kcal/mol
- excess molar enthalpy ([2]; x1 = 0.6973): -0.1268 ± 0.00117 kcal/mol
- excess molar enthalpy ([2]; x1 = 0.7756): -0.09598 ± 0.000932 kcal/mol
- excess molar enthalpy ([2]; x1 = 0.8217): -0.0766 ± 0.000789 kcal/mol
- excess molar enthalpy ([2]; x1 = 0.8736): -0.0537 ± 0.000598 kcal/mol
- excess molar enthalpy ([2]; x1 = 0.9325): -0.0274 ± 0.000406 kcal/mol

SMILES: OCCOCCO [diethylene glycol]
- mass density [1]: 1105.86 ± 0.63 kg/m3

SMILES: CCOCCOCCOCCO [2-(2-(2-ethoxyethoxy)ethoxy)ethanol] + OCc1ccccc1
- excess molar enthalpy ([2]; x1 = 0.0241): -0.0471 ± 0.00055 kcal/mol
- excess molar enthalpy ([2]; x1 = 0.047): -0.08444 ± 0.000837 kcal/mol
- excess molar enthalpy ([2]; x1 = 0.0689): -0.1138 ± 0.00108 kcal/mol
- excess molar enthalpy ([2]; x1 = 0.0898): -0.1373 ± 0.00124 kcal/mol
- excess molar enthalpy ([2]; x1 = 0.129): -0.1713 ± 0.00151 kcal/mol
- excess molar enthalpy ([2]; x1 = 0.1648): -0.1944 ± 0.0017 kcal/mol
- excess molar enthalpy ([2]; x1 = 0.2284): -0.2216 ± 0.00191 kcal/mol
- excess molar enthalpy ([2]; x1 = 0.283): -0.236 ± 0.00201 kcal/mol
- excess molar enthalpy ([2]; x1 = 0.3719): -0.2477 ± 0.0021 kcal/mol
- excess molar enthalpy ([2]; x1 = 0.4704): -0.2462 ± 0.0021 kcal/mol
- excess molar enthalpy ([2]; x1 = 0.5422): -0.2354 ± 0.00201 kcal/mol
- excess molar enthalpy ([2]; x1 = 0.6398): -0.2077 ± 0.00179 kcal/mol
- excess molar enthalpy ([2]; x1 = 0.7031): -0.1828 ± 0.0016 kcal/mol
- excess molar enthalpy ([2]; x1 = 0.7804): -0.1459 ± 0.00131 kcal/mol
- excess molar enthalpy ([2]; x1 = 0.8257): -0.1219 ± 0.00115 kcal/mol
- excess molar enthalpy ([2]; x1 = 0.8766): -0.09221 ± 0.000908 kcal/mol
- excess molar enthalpy ([2]; x1 = 0.9343): -0.0542 ± 0.000621 kcal/mol

SMILES: CCOCCOCC [1,2-diethoxyethane] + OCc1ccccc1
- excess molar enthalpy ([2]; x1 = 0.0296): -0.0118 ± 0.000287 kcal/mol
- excess molar enthalpy ([2]; x1 = 0.0575): -0.0292 ± 0.000406 kcal/mol
- excess molar enthalpy ([2]; x1 = 0.0838): -0.0483 ± 0.00055 kcal/mol
- excess molar enthalpy ([2]; x1 = 0.1087): -0.0659 ± 0.000693 kcal/mol
- excess molar enthalpy ([2]; x1 = 0.1546): -0.09515 ± 0.000932 kcal/mol
- excess molar enthalpy ([2]; x1 = 0.196): -0.1143 ± 0.00108 kcal/mol
- excess molar enthalpy ([2]; x1 = 0.2678): -0.1312 ± 0.0012 kcal/mol
- excess molar enthalpy ([2]; x1 = 0.3278): -0.1323 ± 0.00122 kcal/mol
- excess molar enthalpy ([2]; x1 = 0.4225): -0.1224 ± 0.00112 kcal/mol
- excess molar enthalpy ([2]; x1 = 0.5232): -0.1073 ± 0.00103 kcal/mol
- excess molar enthalpy ([2]; x1 = 0.594): -0.09457 ± 0.000908 kcal/mol
- excess molar enthalpy ([2]; x1 = 0.687): -0.0683 ± 0.000717 kcal/mol
- excess molar enthalpy ([2]; x1 = 0.7453): -0.0439 ± 0.000526 kcal/mol
- excess molar enthalpy ([2]; x1 = 0.8144): -0.0092 ± 0.000263 kcal/mol
- excess molar enthalpy ([2]; x1 = 0.8541): 0.0102 ± 0.000263 kcal/mol
- excess molar enthalpy ([2]; x1 = 0.8977): 0.0262 ± 0.000382 kcal/mol
- excess molar enthalpy ([2]; x1 = 0.9461): 0.0297 ± 0.000406 kcal/mol

SMILES: CCOCCO [2-ethoxyethan-1-ol]
- mass density [1]: 916 ± 0.53 kg/m3

SMILES: CCOCCOCCOCC [diethylene glycol diethyl ether]
- mass density [1]: 893.08 ± 0.54 kg/m3

SMILES: OCc1ccccc1 [benzenemethanol] + CCCCOCCCC
- excess molar enthalpy ([2]; x2 = 0.0247): -0.0016 ± 0.000191 kcal/mol
- excess molar enthalpy ([2]; x2 = 0.0481): 0.000239 ± 0.000191 kcal/mol
- excess molar enthalpy ([2]; x2 = 0.0705): 0.00425 ± 0.000215 kcal/mol
- excess molar enthalpy ([2]; x2 = 0.0918): 0.00963 ± 0.000263 kcal/mol
- excess molar enthalpy ([2]; x2 = 0.1317): 0.0222 ± 0.000359 kcal/mol
- excess molar enthalpy ([2]; x2 = 0.1682): 0.0355 ± 0.000454 kcal/mol
- excess molar enthalpy ([2]; x2 = 0.2327): 0.0605 ± 0.000645 kcal/mol
- excess molar enthalpy ([2]; x2 = 0.288): 0.0821 ± 0.000813 kcal/mol
- excess molar enthalpy ([2]; x2 = 0.3776): 0.1136 ± 0.00108 kcal/mol
- excess molar enthalpy ([2]; x2 = 0.4765): 0.1406 ± 0.00127 kcal/mol
- excess molar enthalpy ([2]; x2 = 0.5482): 0.1535 ± 0.00139 kcal/mol
- excess molar enthalpy ([2]; x2 = 0.6454): 0.1627 ± 0.00143 kcal/mol
- excess molar enthalpy ([2]; x2 = 0.7082): 0.1645 ± 0.00146 kcal/mol
- excess molar enthalpy ([2]; x2 = 0.7845): 0.1608 ± 0.00143 kcal/mol
- excess molar enthalpy ([2]; x2 = 0.8292): 0.1533 ± 0.00136 kcal/mol
- excess molar enthalpy ([2]; x2 = 0.8792): 0.1362 ± 0.00124 kcal/mol
- excess molar enthalpy ([2]; x2 = 0.9357): 0.09577 ± 0.000932 kcal/mol

SMILES: CCOCCO [2-ethoxyethan-1-ol] + OCc1ccccc1
- excess molar enthalpy ([2]; x1 = 0.0424): -0.0217 ± 0.000359 kcal/mol
- excess molar enthalpy ([2]; x1 = 0.0814): -0.0387 ± 0.000478 kcal/mol
- excess molar enthalpy ([2]; x1 = 0.1173): -0.0522 ± 0.000598 kcal/mol
- excess molar enthalpy ([2]; x1 = 0.1505): -0.0635 ± 0.000669 kcal/mol
- excess molar enthalpy ([2]; x1 = 0.21): -0.0803 ± 0.000813 kcal/mol
- excess molar enthalpy ([2]; x1 = 0.2617): -0.09209 ± 0.000908 kcal/mol
- excess molar enthalpy ([2]; x1 = 0.3471): -0.1055 ± 0.001 kcal/mol
- excess molar enthalpy ([2]; x1 = 0.4148): -0.1101 ± 0.00103 kcal/mol
- excess molar enthalpy ([2]; x1 = 0.5154): -0.1094 ± 0.00103 kcal/mol
- excess molar enthalpy ([2]; x1 = 0.6147): -0.1001 ± 0.000956 kcal/mol
- excess molar enthalpy ([2]; x1 = 0.6802): -0.08972 ± 0.000884 kcal/mol
- excess molar enthalpy ([2]; x1 = 0.7613): -0.0722 ± 0.000741 kcal/mol
- excess molar enthalpy ([2]; x1 = 0.8097): -0.0592 ± 0.000645 kcal/mol
- excess molar enthalpy ([2]; x1 = 0.8645): -0.0422 ± 0.000502 kcal/mol
- excess molar enthalpy ([2]; x1 = 0.8948): -0.0319 ± 0.00043 kcal/mol
- excess molar enthalpy ([2]; x1 = 0.9273): -0.0211 ± 0.000359 kcal/mol
- excess molar enthalpy ([2]; x1 = 0.9623): -0.00994 ± 0.000263 kcal/mol

SMILES: CCOCCOCCOCCO [2-(2-(2-ethoxyethoxy)ethoxy)ethanol]
- mass density [1]: 1008.8 ± 1 kg/m3

SMILES: COCCOC [1,2-dimethoxyethane]
- mass density [1]: 850.28 ± 0.56 kg/m3
